Results as given in patent US20090209610A1, “Polymorphic form of 6-(4-chlorophenyl)-2,2-dimethyl-7-Phenyl-2,3-Dihydro-1h-Pyrrolizin-5-Ylacetic Acid” (Merckle GmgH, priority 2005, published 2009).

Experiments:
[1] = particle size measurement by laser diffraction (Helios-Sympatec); type: physicochemical; conditions: for Particle size distribution: Table 3, overall range
Description: Polymorph B has a narrow particle size distribution: d10-d90=1.8 μm-15.9 μm. The average particle size is 6.7 μm. Particle size measurements were carried out by means of laser diffraction spectra using the Helios-Sympatec system: dry disperser RODOS; focal length 50 mm.

[2] = stability of the crystalline form during drying and storage, chemical stability; type: physicochemical
Excerpt: Polymorph B has a crystalline structure and high purity. Owing to the crystalline structure, polymorph B is stable during drying and storage. No phase transitions and no secondary aggregations are to be observed.
Surface phenomena such as electrostatic charging, adhesion, adsorption etc. occur to a distinctly smaller extent by comparison with polymorph A. The crystal structure additionally results in a high chemical stability. Owing to the narrow particle size distribution compared with polymorph A, it is possible to employ polymorph B directly for producing pharmaceutical formulations. An additional grinding step is unnecessary.

[3] = target: cyclooxygenase (CO) and lipoxygenase (LO); assay: inhibitory effect on the enzymes cyclooxygenase and lipoxygenase; type: biochemical; conditions: ratio of IC50 lipoxygenase to IC50 cyclooxygenase
Excerpt: It is notable for a strong analgesic effect and for a similar inhibitory effect on the enzymes cyclooxygenase (CO) and lipoxygenase (LO) (IC50LO/IC50CO˜1). It can therefore be used in the treatment of disorders associated with a change in arachidonic acid metabolism. Particular mention should be made of rheumatoid diseases and the prevention of allergy-induced disorders. […] In addition, it can be used for the treatment of hypercholesterolaemia.

With `CC1(C)Cc2c(-c3ccccc3)c(-c3ccc(Cl)cc3)c(CC(=O)O)n2C1` [Polymorph A, 6-(4-chlorophenyl)-2,2-dimethyl-7-phenyl-2,3-dihydro-1H-pyrrolizin-5-ylacetic acid] the Particle size distribution [1] was 2-500 μm.
For `CC1(C)Cc2c(-c3ccccc3)c(-c3ccc(Cl)cc3)c(CC(=O)O)n2C1` [Polymorph B, 6-(4-chlorophenyl)-2,2-dimethyl-7-phenyl-2,3-dihydro-1H-pyrrolizin-5-ylacetic acid], the “stability during drying and storage” value ([2]; no phase transitions and no secondary aggregations observed) was “stable”, the chemical stability ([2]; resulting from the crystal structure) was “high” and the Particle size distribution [1] was 0.5-70 μm. The average particle size ([1]; laser diffraction) was 6.7 μm, the “particle size distribution d10” value ([1]; laser diffraction, dry disperser RODOS, focal length 50 mm) was 1.8 μm and the IC50LO/IC50CO [3] was ~1.
